From ChEMBL document CHEMBL1146026, “Novel, potent, selective, and orally bioavailable human betaII-tryptase inhibitors” (Bioorg Med Chem Lett, 2006)
pKi: −log10 of the molar value.

Key:
Trypsin = Trypsin (Homo sapiens, UniProt P07477+P07478+P35030); experiment: Binding affinity to trypsin; assay type: protein assay
Tryptase beta-1 [1] = biological target: T1, Tryptase beta-1 (Homo sapiens, UniProt Q15661); experiment: Binding affinity to human tryptase beta2
[2] = Binding affinity to elastase; set-up: species or system Homo sapiens
[3] = Oral bioavailability in iv or po dosed rat; assay type: ADME, organism-based; details: in vivo
[4] = Volume of distribution in iv or po dosed rat; assay type: ADME, organism-based; details: in vivo, read-out: Vc
[5] = AUC in iv or po dosed rat; assay type: ADME, organism-based; details: plasma
[6] = Oral absorption in iv or po dosed rat; assay type: ADME, organism-based; details: in vivo
Tryptase beta-1 [7] = biological target: T1, Tryptase beta-1; experiment: Binding affinity to recombinant cynomolgus monkey tryptase
Tryptase [8] = biological target: T2, Tryptase (Mus musculus, UniProt Q02844); experiment: Binding affinity to mouse tryptase
T2 sequence (Q02844 whole entry): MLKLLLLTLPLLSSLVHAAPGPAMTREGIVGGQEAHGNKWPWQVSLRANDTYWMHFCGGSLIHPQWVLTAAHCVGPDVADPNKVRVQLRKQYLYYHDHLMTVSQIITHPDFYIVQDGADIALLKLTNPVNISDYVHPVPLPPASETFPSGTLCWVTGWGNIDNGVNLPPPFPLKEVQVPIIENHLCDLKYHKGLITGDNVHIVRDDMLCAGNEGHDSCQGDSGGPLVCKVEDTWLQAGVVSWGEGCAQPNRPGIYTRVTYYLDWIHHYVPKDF

Tryptase [9] = biological target: Tryptase (Canis lupus familiaris, UniProt P15944); experiment: Binding affinity to dog tryptase
Sequence of Tryptase (Canis lupus familiaris, UniProt P15944) (P15944 whole entry): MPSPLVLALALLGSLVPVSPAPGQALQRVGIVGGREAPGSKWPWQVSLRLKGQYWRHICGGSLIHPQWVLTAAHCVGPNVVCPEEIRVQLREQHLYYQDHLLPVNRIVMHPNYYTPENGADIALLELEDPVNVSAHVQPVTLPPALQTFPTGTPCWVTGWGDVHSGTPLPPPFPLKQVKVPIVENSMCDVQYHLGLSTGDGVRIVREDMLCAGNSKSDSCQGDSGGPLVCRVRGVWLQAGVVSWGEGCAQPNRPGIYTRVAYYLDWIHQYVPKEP

[10] = Clearance in iv or po dosed rat; assay type: ADME, organism-based; details: in vivo
[11] = Bioavailability in ip dosed mouse; assay type: ADME, organism-based; details: in vivo
Tryptase [12] = biological target: T3, Tryptase (Rattus norvegicus, UniProt P27435); experiment: Binding affinity to rat tryptase
T3 sequence (P27435 whole entry): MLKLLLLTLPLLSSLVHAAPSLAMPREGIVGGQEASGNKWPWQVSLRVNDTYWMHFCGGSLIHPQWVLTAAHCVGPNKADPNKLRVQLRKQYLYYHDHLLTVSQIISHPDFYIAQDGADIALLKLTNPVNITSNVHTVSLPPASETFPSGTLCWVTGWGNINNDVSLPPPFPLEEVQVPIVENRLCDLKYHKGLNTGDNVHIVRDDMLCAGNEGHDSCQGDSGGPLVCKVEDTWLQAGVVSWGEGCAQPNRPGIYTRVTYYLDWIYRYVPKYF

[13] = Mean residence time in iv or po dosed rat; assay type: ADME, organism-based; details: in vivo, read-out: Vdss
[14] = Cmax in iv or po dosed rat; assay type: ADME, organism-based; details: in vivo

T1 sequence (Q15661 whole entry): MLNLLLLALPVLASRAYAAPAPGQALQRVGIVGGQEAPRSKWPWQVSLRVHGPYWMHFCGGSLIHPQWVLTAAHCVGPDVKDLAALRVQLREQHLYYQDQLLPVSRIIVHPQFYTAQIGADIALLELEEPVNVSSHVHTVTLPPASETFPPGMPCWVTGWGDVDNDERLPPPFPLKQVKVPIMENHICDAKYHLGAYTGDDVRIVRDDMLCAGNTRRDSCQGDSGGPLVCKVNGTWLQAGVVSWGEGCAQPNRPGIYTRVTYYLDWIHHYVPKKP

| SMILES | Ki app (Trypsin) | pKi (Tryptase beta-1 [1]) | also measured |
| --- | --- | --- | --- |
| NCCCC[C@H](NC(=O)OCc1ccccc1)C(=O)c1noc(Cc2ccc(OCc3ccccc3)cc2)n1 | 24 nM | 6.74 |  |
| NCCCC[C@H](NC(=O)OCc1ccccc1)C(=O)c1noc(Cc2ccc(OCCC3CCCCC3)cc2)n1 | 1000 nM | 5.96 |  |
| NCCCC[C@H](NC(=O)OCc1ccccc1)C(=O)c1noc(Cc2ccc(OCCc3cccc4ccccc34)cc2)n1 | 95 nM | 7.11 |  |
| CCOC(=O)N[C@@H](CCCCN)C(=O)c1noc(Cc2ccc(OCCc3ccccc3)cc2)n1 |  |  | pKi [2]: < 3.82; bioavailability [3]: 8.4%; Vd [4]: 0.91 L/kg; AUC [5]: 0.183 µM·h; Fa [6]: 18%; pKi (Tryptase beta-1 [7]): 7.33; pKi (Tryptase [8]): 7.36; pKi (Tryptase [9]): 6.42; clearance [10]: 93 mL/min/kg; bioavailability [11]: 68%; pKi (Tryptase [12]): 8.26; Vd [13]: 7 L/kg; Cmax [14]: 590 nM |
| NCCCC[C@H](NC(=O)OCc1ccccc1)C(=O)c1noc(Cc2cccc(OCCCc3ccccc3)c2)n1 | 92 nM | 6.92 |  |
| NCCC[C@H](NC(=O)OCc1ccccc1)C(=O)c1noc(Cc2ccccc2)n1 | 68 nM | 5.57 |  |
| NCCCC[C@H](NC(=O)OCc1ccccc1)C(=O)c1noc(Cc2ccc(OCCc3ccc(Cl)cc3Cl)cc2)n1 | 410 nM | 7.02 |  |
| NCCCC[C@H](NC(=O)OCc1ccccc1)C(=O)c1noc(Cc2cccc(OCCc3ccccc3)c2)n1 | 82 nM | 6.44 |  |
| NCCCC[C@H](NC(=O)OCc1ccccc1)C(=O)c1noc(Cc2ccc(OCCc3ccccc3)cc2)n1 | 35 nM |  |  |

The next lines start with results.

| Ki app (Trypsin) | pKi (Tryptase beta-1 [1]) | SMILES | also measured |
| --- | --- | --- | --- |
| 190 nM | 7.89 | NCCCC[C@H](NC(=O)OCc1ccccc1)C(=O)c1noc(Cc2ccc(OCCc3cccc(Cl)c3)cc2)n1 |  |
| 41 nM | 7.60 | NCCCC[C@H](NC(=O)OCc1ccccc1)C(=O)c1noc(Cc2ccc(OCCCc3ccccc3)cc2)n1 |  |
| 11 nM | 7.62 | COc1ccc(CCOc2ccc(Cc3nc(C(=O)[C@H](CCCCN)NC(=O)OCc4ccccc4)no3)cc2)cc1OC |  |
| 34 nM | 7.72 | COc1ccc(CCOc2ccc(Cc3nc(C(=O)[C@H](CCCCN)NC(=O)OCc4ccccc4)no3)cc2)cc1 |  |
| 280 nM | 8.00 | NCCCC[C@H](NC(=O)OCc1ccccc1)C(=O)c1noc(Cc2ccc(OCCc3ccc(Cl)c(Cl)c3)cc2)n1 |  |
| 110 nM | 7.80 | NCCCC[C@H](NC(=O)OCc1ccccc1)C(=O)c1noc(Cc2ccc(OCCc3ccc(F)cc3)cc2)n1 |  |
| 270 nM | 7.85 | NCCCC[C@H](NC(=O)OCc1ccccc1)C(=O)c1noc(Cc2ccc(OCCc3ccc(Cl)cc3)cc2)n1 |  |
| 59 nM | 7.39 | COc1cccc(CCOc2ccc(Cc3nc(C(=O)[C@H](CCCCN)NC(=O)OCc4ccccc4)no3)cc2)c1 |  |
| 140 nM | 7.57 | NCCCC[C@H](NC(=O)OCc1ccccc1)C(=O)c1noc(Cc2ccc(OCCc3ccc4ccccc4c3)cc2)n1 |  |
